Experimental data from patent EP4702986A1, “POLYPEPTIDE AND USE THEREOF” (Biocells (Beijing) Biotech Co., Ltd., priority 2023, dated 2024).
Numbered stars: 1 amine (or outer) side, 2 acyl side, 3 side chain; on linkers, the order of the positions; unused ones are H or OH. Side chains are listed from the residue outwards. Ends that are not written are not given here. Peptide text beside a SMILES is read from it. * marks the point of attachment. X1 = C[C@H](NC(=O)[C@@H]1CCCN1C(=O)[C@@H](N)CSC1CC(=O)N(CCC(=O)*)C1=O)C(=O)N[C@@H](CCCCN)C(=O)O; γGlu = O=C(O)[C@H](CCC(=O)[*:2])N[*:1]; Fumaroyl = O=C(O)/C=C/C(=O)*; Suc = O=C(CCC(=O)[*:2])[*:1]; Lauroyl = CCCCCCCCCCCC(=O)*; AEEA = NCCOCCOCC(=O)O

Biological target: T1, rat ETB receptor (Rattus norvegicus, UniProt P21451)
T1 construct: expressed in transfected cells
T1 sequence (P21451 27-442): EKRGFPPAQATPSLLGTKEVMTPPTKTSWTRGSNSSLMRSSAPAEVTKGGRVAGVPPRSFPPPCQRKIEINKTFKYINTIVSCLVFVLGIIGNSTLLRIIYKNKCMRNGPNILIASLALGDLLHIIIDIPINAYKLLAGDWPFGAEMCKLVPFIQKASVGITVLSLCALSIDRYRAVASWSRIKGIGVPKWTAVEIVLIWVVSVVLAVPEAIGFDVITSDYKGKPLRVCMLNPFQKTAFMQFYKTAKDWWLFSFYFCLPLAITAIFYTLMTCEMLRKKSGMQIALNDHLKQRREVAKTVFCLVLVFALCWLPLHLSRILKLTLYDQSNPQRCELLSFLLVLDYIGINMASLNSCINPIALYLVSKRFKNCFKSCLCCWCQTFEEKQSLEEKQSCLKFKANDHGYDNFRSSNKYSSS
Test: Determination of EC50s of polypeptides against rat ETB receptor
Type: cell-based
Conditions: Table 8, rat ETB receptor; for EC50: read-out: DETAR Agonist Activity EC50
Protocol: 293T-17 cells were seeded at a density of 650,000 cells per well in a 6-well plate and cultured overnight in an incubator at 37°C and 5% CO2. Afterward, the cells were transfected with an expression vector, PCDNA3.1-hETB which contained a human ETB receptor gene, at a plasmid concentration of 2.5 µg per well. The cells were further cultured for 48 hours, and green fluorescence expression was observed under a fluorescence microscope. The cells were then digested with trypsin and counted. The activity of compounds on the human ETB receptor was determined with the IP-One Gq kit from Cisbio Bioassays. The cells were suspended in Stim Buffer provided in the kit and the cell suspension was added to a 96-well detection plate at 7 µL cell suspension (containing 30,000 cells) per well. The polypeptides to be tested (prepared according to the Preparation Example of the invention) were diluted in Stim B to obtain a gradient of 11 concentration points. For each concentration point, the polypeptides to be tested were dissolved in Stim B to be at a concentration of 2×, and added at 7 µL to the test cells, while 7 µL of PBS solution was added to the cells in the negative control wells. The plate was sealed and incubated at 37°C for 1 hour in a cell culture incubator. Detection wells, positive control wells containing human endothelin ET1 (ET1: […] (C1-C15,C3-C11)), and PBS control wells were each added with 3 µL of IP1 d2 working solution and 3 µL of IP1 Tb cryptotate Antibody working solution. The plate was then sealed and incubated in the dark at room temperature (25°C±5°C) for 1 hour. The plate seal was removed, and the […] at 665 nm and 620 nm was measured with an ID5 microplate reader. The ratio of the acceptor emission signal to the donor emission signal, i.e., (signal at 665 nm/signal at 620 nm)×10^4, was calculated for each well. With F representing the average value of values of signal at 665 nm/signal at 620 nm for the test samples at various concentrations, a scatterplot was plotted, where the abscissa represented the F value, and the ordinate represented the logarithmic value of the peptide concentration. A curve was fitted with an appropriate method to calculate EC50 values of the polypeptides against the human ETB receptor. Another method was provided for fitting a curve where activation rate of the test polypeptides at each concentration relative to the positive control sample human endothelin ET1 was calculated first with the method in Example 1, and a scatterplot was plotted, where the abscissa represented the activation rate, and the ordinate represented the logarithmic value of the polypeptide concentration. A curve was fitted with an appropriate method to calculate the EC50 values of the polypeptides against the human ETB receptor.
The process is the same as that in Example 3, except that the transfected plasmid was expression vector PCDNA3.1-RETB which contained a rat ETB receptor gene. EC50 values of the polypeptides against the rat ETB receptor were calculated (see Figures 11-13). The sequence of the rat ETB receptor (NCBI accession number: X57764.1).

Compound	EC50 [nM]	DETAR Agonist Activity, % (@10nM)	DETAR Agonist Activity, % (@100nM)
CCCCCCCCCCCC(=O)N[C@@H](CCC(=O)NCCOCCOCC(=O)NCCCC[C@H](NC(=O)[C@H](Cc1c[nH]cn1)NC(=O)[C@H](C)NC(=O)[C@H](Cc1ccccc1)NC(=O)[C@H](Cc1ccc(O)cc1)NC(=O)[C@@H](NC(=O)[C@H](C)NC(=O)[C@H](CCC(=O)O)NC(=O)[C@H](CCC(=O)O)NC(=O)[C@H](CC(=O)O)NC(=O)/C=C/C(=O)O)C(C)C)C(=O)N[C@@H](CC(=O)O)C(=O)N[C@H](C(=O)N[C@H](C(=O)N[C@@H](Cc1c[nH]c2ccccc12)C(=O)O)[C@@H](C)CC)C(C)C)C(=O)O [BX229-Na] (Fumaroyl-DEEAVYFAHK([AEEA-γGlu-Lauroyl])DVIW-OH)	7.22		
Suc-DE cyclo(CEEC)YFAHKDIIW (Suc-DECEECYFAHKDIIW; not fully specified (bridges); printed as Suc-DE cyclo(CEEC)YFAHKDIIW; also: cyclo(CEEC) in N-terminal extension, bond type not given here) [BX-57]		67.42%	218.34%
Fum-DEEEVYFAHKDIIW (Fumaroyl-DEEEVYFAHKDIIW) [BX-52]		22.36%@10n M	389.09%@100 nM
CC[C@H](C)[C@H](NC(=O)[C@H](CC(=O)O)NC(=O)[C@H](CCCCNC(=O)COCCOCCNC(=O)CCN1C(=O)CC(SC[C@H](N)C(=O)N2CCC[C@H]2C(=O)N[C@@H](C)C(=O)N[C@@H](CCCCN)C(=O)O)C1=O)NC(=O)[C@H](Cc1c[nH]cn1)NC(=O)[C@H](C)NC(=O)[C@H](Cc1ccccc1)NC(=O)[C@H](Cc1ccc(O)cc1)NC(=O)[C@@H](NC(=O)[C@H](C)NC(=O)[C@H](CCC(=O)O)NC(=O)[C@H](CCC(=O)O)NC(=O)[C@H](CC(=O)O)NC(=O)/C=C/C(=O)O)C(C)C)C(=O)N[C@H](C(=O)N[C@@H](Cc1c[nH]c2ccccc12)C(=O)O)[C@@H](C)CC (some centres unmarked) [BX-95] (Fumaroyl-DEEAVYFAHK([AEEA-X1])DIIW-OH)	24		
Fum-DEEEVYFAHOrnDIIW [BX-59]		314.15%@10n M	46.94%@100n M
